Data as given in ChEMBL document CHEMBL5584255, “Synthesis and antibacterial medicinal evaluation of carbothioamido hydrazonyl thiazolylquinolone with multitargeting antimicrobial potential to combat increasingly global resistance” (Eur J Med Chem, 2024).
≈ marks a conversion by molar mass, not a printed value.

What was measured:
Type in all cases: functional
[1] = test system: Candida albicans; assay: Antifungal activity against Candida albicans ATCC 90023
[2] = test system: Candida tropicalis; assay: Antifungal activity against drug-resistant Candida tropicalis
[3] = test system: Staphylococcus aureus; assay: Antibacterial activity against methicillin-resistant Staphylococcus aureus N315 by microbroth dilution method
[4] = test system: Aspergillus fumigatus; assay: Antifungal activity against Aspergillus fumigatus
[5] = test system: Acinetobacter baumannii; assay: Antibacterial activity against Acinetobacter baumannii by microbroth dilution method
[6] = test system: Escherichia coli; assay: Antibacterial activity against drug-resistant Escherichia coli by microbroth dilution method
[7] = test system: Escherichia coli; assay: Antibacterial activity against Escherichia coli ATCC 25922 by microbroth dilution method
[8] = test system: Staphylococcus aureus; assay: Antibacterial activity against Staphylococcus aureus ATCC 29213 by microbroth dilution method
[9] = test system: Enterococcus faecalis; assay: Antibacterial activity against drug-resistant Enterococcus faecalis by microbroth dilution method
[10] = test system: Staphylococcus aureus; assay: Antibacterial activity against drug-resistant Staphylococcus aureus by microbroth dilution method
[11] = test system: Candida albicans; assay: Antifungal activity against drug-resistant Candida albicans
[12] = test system: Staphylococcus aureus; assay: Antibacterial activity against Staphylococcus aureus ATCC 25923 by microbroth dilution method
[13] = test system: Klebsiella pneumoniae; assay: Antibacterial activity against Klebsiella pneumoniae by microbroth dilution method
[14] = test system: Pseudomonas aeruginosa; assay: Antibacterial activity against Pseudomonas aeruginosa ATCC 27853 by microbroth dilution method
[15] = test system: Candida parapsilosis; assay: Antifungal activity against Candida parapsilosis ATCC 22019; conditions: Lodderomyces parapsilosis
[16] = test system: Pseudomonas aeruginosa; assay: Antibacterial activity against Pseudomonas aeruginosa by microbroth dilution method

Row | SMILES | MIC [1] [µM] | MIC [2] [µM] | MIC [3] [µM] | MIC [4] [µM] | MIC [5] [µM] | MIC [6] [µM] | MIC [7] [µM] | MIC [8] [µM] | MIC [9] [µM] | MIC [10] [µM] | MIC [11] [µM] | MIC [12] [µM] | MIC [13] [µM] | MIC [14] [µM] | MIC [15] [µM] | MIC [16] [µM]
1 | Cc1nc(-c2c[nH]c3ccc(F)cc3c2=O)cs1 | 492 (≈ 128 µg/mL) | 985 (≈ 256 µg/mL) | 1970 (≈ 513 µg/mL) | 985 (≈ 256 µg/mL) | 492 (≈ 128 µg/mL) | 1970 (≈ 513 µg/mL) | 492 (≈ 128 µg/mL) | 985 (≈ 256 µg/mL) | 985 (≈ 256 µg/mL) | 1970 (≈ 513 µg/mL) | 985 (≈ 256 µg/mL) | 1970 (≈ 513 µg/mL) | 1970 (≈ 513 µg/mL) | 492 (≈ 128 µg/mL) | 492 (≈ 128 µg/mL) | 985 (≈ 256 µg/mL)
2 | C/C(Cn1cc(-c2csc(C)n2)c(=O)c2cc(F)cc(F)c21)=N\NC(N)=S | 1260 (≈ 513 µg/mL) | 1260 (≈ 513 µg/mL) | 1260 (≈ 513 µg/mL) | 629 (≈ 256 µg/mL) | 629 (≈ 256 µg/mL) | 1260 (≈ 513 µg/mL) | 1260 (≈ 513 µg/mL) | 629 (≈ 256 µg/mL) | 1260 (≈ 513 µg/mL) | 1260 (≈ 513 µg/mL) | 1260 (≈ 513 µg/mL) | 1260 (≈ 513 µg/mL) | 314 (≈ 128 µg/mL) | 629 (≈ 256 µg/mL) | 157 (≈ 64 µg/mL) | 629 (≈ 256 µg/mL)
3 | CC(=O)Cn1cc(-c2csc(C)n2)c(=O)c2cc(F)c(F)cc21 | 766 (≈ 256 µg/mL) | 766 (≈ 256 µg/mL) | 1530 (≈ 513 µg/mL) | 766 (≈ 256 µg/mL) | 1530 (≈ 513 µg/mL) | 1530 (≈ 513 µg/mL) | 1530 (≈ 513 µg/mL) | 766 (≈ 256 µg/mL) | 1530 (≈ 513 µg/mL) | 766 (≈ 256 µg/mL) | 1530 (≈ 513 µg/mL) | 766 (≈ 256 µg/mL) | 766 (≈ 256 µg/mL) | 1530 (≈ 513 µg/mL) | 1530 (≈ 513 µg/mL) | 1530 (≈ 513 µg/mL)
4 | CC(=O)Cn1cc(-c2csc(N)n2)c(=O)c2cc(F)c(F)cc21 | 382 (≈ 128 µg/mL) | 764 (≈ 256 µg/mL) | 382 (≈ 128 µg/mL) | 382 (≈ 128 µg/mL) | 382 (≈ 128 µg/mL) | 764 (≈ 256 µg/mL) | 382 (≈ 128 µg/mL) | 382 (≈ 128 µg/mL) | 382 (≈ 128 µg/mL) | 382 (≈ 128 µg/mL) | 764 (≈ 256 µg/mL) | 382 (≈ 128 µg/mL) | 764 (≈ 256 µg/mL) | 382 (≈ 128 µg/mL) | 764 (≈ 256 µg/mL) | 382 (≈ 128 µg/mL)
5 | CC(=O)Cn1cc(-c2csc(C)n2)c(=O)c2cc(F)c(Cl)cc21 | 91 (≈ 31.9 µg/mL) | 731 (≈ 256 µg/mL) | 731 (≈ 256 µg/mL) | 731 (≈ 256 µg/mL) | 731 (≈ 256 µg/mL) | 731 (≈ 256 µg/mL) | 731 (≈ 256 µg/mL) | 366 (≈ 128 µg/mL) | 366 (≈ 128 µg/mL) | 366 (≈ 128 µg/mL) | 366 (≈ 128 µg/mL) | 366 (≈ 128 µg/mL) | 731 (≈ 256 µg/mL) | 366 (≈ 128 µg/mL) | 366 (≈ 128 µg/mL) | 731 (≈ 256 µg/mL)
6 | Nc1nc(-c2c[nH]c3ccc(F)cc3c2=O)cs1 | 61 (≈ 15.9 µg/mL) | 490 (≈ 128 µg/mL) | 490 (≈ 128 µg/mL) | 245 (≈ 64 µg/mL) | 490 (≈ 128 µg/mL) | 490 (≈ 128 µg/mL) | 490 (≈ 128 µg/mL) | 490 (≈ 128 µg/mL) | 490 (≈ 128 µg/mL) | 490 (≈ 128 µg/mL) | 245 (≈ 64 µg/mL) | 490 (≈ 128 µg/mL) | 490 (≈ 128 µg/mL) | 245 (≈ 64 µg/mL) | 245 (≈ 64 µg/mL) | 981 (≈ 256 µg/mL)
7 | CC(=O)Cn1cc(-c2csc(N)n2)c(=O)c2cc(F)cc(F)c21 | 382 (≈ 128 µg/mL) | 382 (≈ 128 µg/mL) | 382 (≈ 128 µg/mL) | 382 (≈ 128 µg/mL) | 382 (≈ 128 µg/mL) | 382 (≈ 128 µg/mL) | 382 (≈ 128 µg/mL) | 382 (≈ 128 µg/mL) | 382 (≈ 128 µg/mL) | 764 (≈ 256 µg/mL) | 764 (≈ 256 µg/mL) | 382 (≈ 128 µg/mL) | 764 (≈ 256 µg/mL) | 191 (≈ 64 µg/mL) | 764 (≈ 256 µg/mL) | 382 (≈ 128 µg/mL)
8 | CC(=O)Cn1cc(-c2csc(N)n2)c(=O)c2cccc(F)c21 | 404 (≈ 128 µg/mL) | 202 (≈ 64.1 µg/mL) | 404 (≈ 128 µg/mL) | 404 (≈ 128 µg/mL) | 404 (≈ 128 µg/mL) | 807 (≈ 256 µg/mL) | 807 (≈ 256 µg/mL) | 807 (≈ 256 µg/mL) | 404 (≈ 128 µg/mL) | 807 (≈ 256 µg/mL) | 404 (≈ 128 µg/mL) | 404 (≈ 128 µg/mL) | 404 (≈ 128 µg/mL) | 404 (≈ 128 µg/mL) | 404 (≈ 128 µg/mL) | 807 (≈ 256 µg/mL)
